Experiment [1] has as its system C57BL/6J mice injected with AAV (LacZ transgene). Nature of the experiment: In vivo mouse AAV model: intracellular cytokine staining of splenocytes. As to conditions: chow 30 mg/kg from 15 days prior to AAV; day 21; versus AAV group; N=10. How it is done:
In-vivo mice experiments. C57BL/6J mice were purchased from Jackson Laboratories. 6-8-week male mice were divided into 3 groups—PBS group, AAV group and AAV+IRAK4 group all groups with 10 mice each. Zimlovisertib IRAK4 inhibitor (Synonyms: PF-06650833) Cat. No.: HY-19836 (MedChemExpress) was mixed with mouse chow Catalog #2016, Teklad Global 16% Protein Rodent Diets https://www.inotivco.com/rodent-natural-ingredient-2016-diets at a dose of 30 mg/kg. AAV+IRAK4 group was fed the chow with Zimlovisertib IRAK4 inhibitor 15 days prior to AAV injection whereas PBS and AAV group were fed with mouse chow Catalog #2016, Teklad Global 16% Protein Rodent Diets https://www.inotivco.com/rodent-natural-ingredient-2016-diets. PBS group mice were injected intramuscularly with 100 ul PBS, AAV group was injected intramuscularly with 1e11 vg per quadricep muscle of both legs, 100 ul volume.
Intracellular cytokine staining. Splenocytes were harvested from mouse spleens, and 2 million cells were seeded on a 96-well U-bottom plate. The cells were centrifuged at 2,000 rpm for 5 minutes and then resuspended with 100 μl of the RPMI containing 10% FBS and 1×2-mercaptoethanol. 10 μg/ml concentration of AAVrh32.33 overlapping peptide, AAVrh32.33 LacZ immunodominant peptide, and LacZ immunodominant peptide were prepared in the RPMI1640 containing 10% FBS, 1×2-mercaptoethanol, and 1:500 GolgiStop. For the positive control, 0.10 μg/ml PMA and 2 μg/ml Ionomycin solution were prepared in the RPIM1640 containing 10% FBS, 1×2-mercaptoethanol, and 1:500 GolgiStop. Then, 100 μl of the prepared solution was added to the cells, resulting in a final concentration of 5 μg/ml (or 0.05 μg/ml PMA and 1 μg/ml Ionomycin). The cells were incubated at 37° C. 5% CO2 incubator overnight to stimulate the cells. The next day, the cells were centrifuged at 2,000 rpm for 5 minutes, and then washed with the FACS buffer one time. The cells were stained with an antibody cocktail (1:100 anti-CD4 FITC, 1:100 anti-CD8a PerCP-Cy5.5, 1:100 anti-CD44 Pacific Blue, 1:100 Live/Dead Cell Stain Kit) for 30 minutes at 4° C. […]

The target of the next experiment is T1, IRAK4 protein (Homo sapiens, UniProt Q9NWZ3).
T1 construct: endogenous in cells; host or cells: primary human monocyte-derived dendritic cells from PBMC donors
T1 sequence (Q9NWZ3 1-460): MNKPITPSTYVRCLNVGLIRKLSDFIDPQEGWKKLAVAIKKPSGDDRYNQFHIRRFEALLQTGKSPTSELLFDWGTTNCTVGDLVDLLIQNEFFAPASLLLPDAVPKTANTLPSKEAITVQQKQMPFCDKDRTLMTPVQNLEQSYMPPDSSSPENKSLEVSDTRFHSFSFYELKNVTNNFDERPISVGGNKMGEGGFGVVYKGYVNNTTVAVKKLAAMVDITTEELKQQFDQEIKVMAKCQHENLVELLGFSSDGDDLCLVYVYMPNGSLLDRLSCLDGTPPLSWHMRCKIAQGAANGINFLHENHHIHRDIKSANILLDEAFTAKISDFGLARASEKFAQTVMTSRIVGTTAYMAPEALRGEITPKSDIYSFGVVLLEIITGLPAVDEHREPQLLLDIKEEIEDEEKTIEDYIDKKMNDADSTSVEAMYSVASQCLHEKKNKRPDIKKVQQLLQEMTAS
Nature of the experiment: AlphaLISA assay of IRAK4 protein levels in cell lysates. Type of experiment: cell-based. To be noted: 16 nM, 80 nM, 400 nM and 2000 nM; AAV.SAN024 MOI 1e5 24 hrs. The procedure:
AlphaLISA assay. This assay was performed to measure the levels of IRAK4 protein in the cells. The protocol was followed as per manufacturer's recommendation Perkin Elmer (Catalog #AL3117C). Briefly, cells were lysed and 5 μL of lysates were added to Anti-IRAK4 Acceptor Beads and incubated for 30 min at 23° C., then Biotinylated Anti-IRAK4 Antibody was added and incubated for 60 min at 23° C. Finally, SA-donor beads are added and 30 min later plates are read using EnVision-Alpha Reader (615 nm) https://resources.perkinelmer.com/lab-solutions/resources/docs/MAN_AlphaLISA_IRAK4_AL3117.pdf?_gl=1*7jzf5d*_ga*MzQ4MTQ1NzA3LjE2NDY2NzY5MjI.*_ga_W34ZJ1Z1Q1*MTY3NzE5MjAyOS4zLjEuMTY3NzE5MjA2Mi4yNy4wLjA.&_ga=2.178521252.1409175695.1677192029-348145707.1646676922. The same protocol was used to measure phosphorylation levels of NFkB using AlphaLISA SureFire Ultra p-NFκB (Ser536) Assay Kit—High Volume Catalog #ALSU-PNFKB-A-HV.
To determine the activity of PROTAC degrader, human monocytic dendritic cells were treated with different doses of drugs as indicated (16 nM, 80 nM, 400 nM and 2000 nM) and the same cells were infected with AAV.SAN024 at MOI of 1e5 for 24 hrs. Cell lysates were analysed for IRAK4 degradation. No significant difference was observed between the control (untretaed/uninfected) cells as compared to the treated and AAV. SAN024 infected cells but the AAV.
(In general: Alpha assays give light when donor and acceptor beads are brought close together.)

Data on 2 molecules can be found in US20230405151A1, “USE OF IRAK4 MODULATORS FOR GENE THERAPY” (Genzyme Corporation, priority 2022, published 2023).

Structures are written as SMILES.

Consider `CC[C@@H]1[C@H](F)C(=O)N[C@@H]1COc1nccc2cc(C(N)=O)c(OC)cc12` [zimlovisertib, 1-[[(2S,3S,4S)-3-Ethyl-4-fluoro-5-oxo-2-pyrrolidinyl]methoxy]-7-methoxy-6-isoquinolinecarboxamide], for which, in experiment [1], the “Interferon gamma producing activated CD8 T cells, splenocytes stimulated with AAV immunodominant peptide” value was “reduce significantly”; the “Interferon gamma producing activated CD8 T cells, splenocytes stimulated with AAV peptide pools” value was “reduce significantly”; the “Interferon gamma producing activated CD8 T cells, splenocytes stimulated with LacZ immunodominant peptide” value was “reduce significantly”.
Turning to `O=C1CCC(N2C(=O)c3cccc(NCc4cn(CCCNC(=O)c5ccc(-n6cc(NC(=O)c7coc(-c8ccnc(NCC9CC9)c8)n7)c(C(F)(F)F)n6)cc5)cn4)c3C2=O)C(=O)N1` (stereo not shown) [PROTAC IRAK4 degrader-1], the “IRAK4 levels (IRAK4 degradation) in cell lysates” value at IRAK4 protein was “reduction of IRAK4 levels at all doses”.
